From PubChem BioAssay AID1963831 (Molecular Pharmacology Branch, DTP, NCI, 2024)

Tested on: 889142-216-R-J1-PDC complex spheroid viability
Experiment: Anticancer human tumor 889142-216-R-J1-PDC patient-derived bladder carcinoma cell line growth inhibition [POLQ]
Conditions: for IC50: curve of first compound; for viability, T/C: stronger effect = lower value; active = viability on the fitted dose curve at most 10% of control; inactive = the rest
Outline: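 Patient-derived tumour cells were co-cultured with HUVEC and mesenchymal stem cells as multicellular spheroids at 37 °C. They were treated with POLQ inhibitors (novobiocin, ART-558, RP6685) alone or combined with other agents. Top concentrations were at or near clinical Cmax (otherwise 10 microM; SN-38 at 1 microM), decreasing in half-log steps.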

[1] = second compound 0.0316 µM, first compound 0.0316 µM
[2] = second compound 0.0316 µM, first compound 0.1 µM
[3] = second compound 0.0316 µM, first compound 0.316 µM
[4] = second compound 0.0316 µM, first compound 1 µM
[5] = second compound 0.0316 µM, first compound 3.16 µM
[6] = second compound 0.0316 µM, first compound 10 µM
[7] = second compound 0.1 µM, first compound 0.0316 µM
[8] = second compound 0.1 µM, first compound 0.1 µM
[9] = second compound 0.1 µM, first compound 0.316 µM
[10] = second compound 0.1 µM, first compound 1 µM
[11] = second compound 0.1 µM, first compound 3.16 µM
[12] = second compound 0.1 µM, first compound 10 µM
[13] = second compound 0.316 µM, first compound 0.0316 µM
[14] = second compound 0.316 µM, first compound 0.1 µM
[15] = second compound 0.316 µM, first compound 0.316 µM
[16] = second compound 0.316 µM, first compound 1 µM
[17] = second compound 0.316 µM, first compound 3.16 µM
[18] = second compound 0.316 µM, first compound 10 µM
[19] = second compound 1 µM, first compound 0.0316 µM
[20] = second compound 1 µM, first compound 0.1 µM
[21] = second compound 1 µM, first compound 0.316 µM
[22] = second compound 1 µM, first compound 1 µM
[23] = second compound 1 µM, first compound 3.16 µM
[24] = second compound 1 µM, first compound 10 µM
[25] = second compound 3.16 µM, first compound 0.0316 µM
[26] = second compound 3.16 µM, first compound 0.1 µM
[27] = second compound 3.16 µM, first compound 0.316 µM
[28] = second compound 3.16 µM, first compound 1 µM
[29] = second compound 3.16 µM, first compound 3.16 µM
[30] = second compound 3.16 µM, first compound 10 µM
[31] = second compound 10 µM, first compound 0.0316 µM
[32] = second compound 10 µM, first compound 0.1 µM
[33] = second compound 10 µM, first compound 0.316 µM
[34] = second compound 10 µM, first compound 1 µM
[35] = second compound 10 µM, first compound 3.16 µM
[36] = second compound 10 µM, first compound 10 µM
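Note: spheroids exposed to compounds for seven days.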
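Throughout, for viability, T/C: 100% = DMSO vehicle control viability.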

CC1COCCN1c1cc(-c2ccnn2C)c2ccnc(-c3ccn[nH]3)c2n1 (centres undefined) + Nc1ccc(C#CCN(C(=O)Cc2ncc(C(F)(F)F)cc2C(F)(F)F)c2ccc(F)cc2)nn1
557 nM: IC50 (second compound 10 µM)
386 nM: IC50 (second compound 0.0316 µM)
inactive: viability, T/C [1] 69.5% | viability, T/C [2] 60.1% | viability, T/C [3] 53.7% | viability, T/C [4] 41% | viability, T/C [5] 32.8% | viability, T/C [6] 32.7% | viability, T/C [7] 71.8% | viability, T/C [8] 60% | viability, T/C [9] 48.6% | viability, T/C [10] 44.5% | viability, T/C [11] 32.2% | viability, T/C [12] 24.6% | viability, T/C [13] 73.3% | viability, T/C [14] 54.6% | viability, T/C [15] 52.7% | viability, T/C [16] 42.7% | viability, T/C [17] 36.6% | viability, T/C [18] 25.5% | viability, T/C [19] 77.7% | viability, T/C [20] 45.8% | viability, T/C [21] 47.8% | viability, T/C [22] 39.3% | viability, T/C [23] 38.2% | viability, T/C [24] 27.3% | viability, T/C [25] 62.9% | viability, T/C [26] 57.2% | viability, T/C [27] 51% | viability, T/C [28] 43.2% | viability, T/C [29] 38.9% | viability, T/C [30] 32.3% | viability, T/C [31] 72.4% | viability, T/C [32] 68.2% | viability, T/C [33] 56.3% | viability, T/C [34] 42.3% | viability, T/C [35] 38.1% | viability, T/C [36] 31.7%
353 nM: IC50 (second compound 3.16 µM)
349 nM: IC50 (second compound 0.1 µM) | IC50 (second compound 0.316 µM)
133 nM: IC50 (second compound 1 µM)

CC1COCCN1c1cc(C2(O)CC3CCC(C2)O3)c2cnn(-c3ccn[nH]3)c2n1 (centres undefined) + Nc1ccc(C#CCN(C(=O)Cc2ncc(C(F)(F)F)cc2C(F)(F)F)c2ccc(F)cc2)nn1
inactive: viability, T/C [1] 63.7% | viability, T/C [2] 47.1% | viability, T/C [3] 39.1% | viability, T/C [4] 35.1% | viability, T/C [5] 30.5% | viability, T/C [6] 20.3% | viability, T/C [7] 67.2% | viability, T/C [8] 56.4% | viability, T/C [9] 49.4% | viability, T/C [10] 39.4% | viability, T/C [11] 31.6% | viability, T/C [12] 26.1% | viability, T/C [13] 71.9% | viability, T/C [14] 62% | viability, T/C [15] 40.9% | viability, T/C [16] 35% | viability, T/C [17] 27% | viability, T/C [18] 20% | viability, T/C [19] 64.5% | viability, T/C [20] 47.3% | viability, T/C [21] 37.4% | viability, T/C [22] 35.4% | viability, T/C [23] 29.6% | viability, T/C [24] 19.4% | viability, T/C [25] 57.8% | viability, T/C [26] 49.3% | viability, T/C [27] 44.8% | viability, T/C [28] 36% | viability, T/C [29] 31.2% | viability, T/C [30] 16.6% | viability, T/C [31] 67% | viability, T/C [32] 44.3% | viability, T/C [33] 42.1% | viability, T/C [34] 31.2% | viability, T/C [35] 26.8% | viability, T/C [36] 16.2%
99.7 nM: IC50 (second compound 1 µM)
108 nM: IC50 (second compound 10 µM)
251 nM: IC50 (second compound 0.1 µM)
101 nM: IC50 (second compound 0.0316 µM)
209 nM: IC50 (second compound 0.316 µM)
121 nM: IC50 (second compound 3.16 µM)
